Each compound was assayed on Rat Paw Edema (assay: Rat paw edema assay (carrageenan-induced)). Settings: dose of prodrug, po, required to reduce edema formation by 50% as compared to the vehicle control.
Type: in vivo, Male Sprague-Dawley rats
Protocol: Male Sprague-Dawley rats (150-200 g) are fasted overnight and are given, po, either vehicle (1% methocel or 5% Tween 80) or a test compound. One hr later, a line is drawn using a permanent marker at the level above the ankle in one hind paw to define the area of the paw to be monitored. The paw volume (V0) is measured using a plethysmometer (Ugo-Basile, Italy) based on the principle of water displacement. The animals are then injected subplantarly with 50 µl of 1% carrageenan solution in saline (FMC Corp, Maine) into the paw using an insulin syringe with a 25-gauge needle (i.e. 500 µg carrageenan per paw). Three hr later, the paw volume (V3) is measured and the increases in paw volume (V3 - VO) are calculated. The animals are sacrificed by CO2 asphyxiation and the absence or presence of stomach lesions scored. Data is compared with the vehicle-control values and percent inhibition calculated. All treatment groups are coded to eliminate observer bias.
Compounds of the present invention are prodrugs of inhibitors of COX-2 and are thereby useful in the treatment of COX-2 mediated diseases as enumerated above. The extent of conversion of these compounds to the active COX-2 inhibitors may be seen in the representative results shown below along with their antiinflammatory activity. The plasma levels indicated are the maximum rat plasma concentrations of the active COX-2 inhibitor observed when the rat was treated with a 20 mg/kg oral dose of the indicated prodrug. The ED50 values in the rat paw edema assay represent the dose of prodrug required to reduce edema formation by 50% as compared to the vehicle control.

SMILES	ED50 [mg/kg]
CC1(C)OC(O)C(Oc2ccc(F)c(F)c2)=C1c1ccc(S(C)(=O)=O)cc1 (centres unmarked) [Example 10, 5.5-Dimethyl-3-(3,4-difluorophenoxy)-2-hydroxy-4-(4-(methylsulfonyl)phenyl)-2.5-dihydrofuran]	0.09
CC1(C)OC(O)C(Oc2cccc(F)c2)=C1c1ccc(S(C)(=O)=O)cc1 (centres unmarked) [Example 9, 5.5-Dimethyl-3-(3-fluorophenoxy)-2-hydroxy-4-(4-(methylsulfonyl)phenyl)-2,5-dihydrofuran]	1.7
CC(OC1=C(c2ccc(S(C)(=O)=O)cc2)C(C)(C)OC1O)C1CC1 (centres unmarked) [Example 44, 3-(1-Cyclopropylethoxy)-5,5-dimethyl-4-(4-methylsulfonylphenyl)-2,5-dihydrofuran-2-ol]	1.6
CC1(C)OC(O)C(c2cccc(F)c2)=C1c1ccc(S(C)(=O)=O)cc1 (centres unmarked) [Example 1, 5,5-Dimethyl-3-(3-fluorophenyl)-2-hydroxy-4-(4-methylsulfonylphenyl)-2.5-dihydrofuran]	2.5
CC1(C)OC(O)C(c2cc(F)cc(F)c2)=C1c1ccc(S(C)(=O)=O)cc1 (centres unmarked) [Example 2, 3-(3,5-Difluorophenyl)-5,5-dimethyl-2-hydroxy-4-(4-(methylsulfonyl)phenyl)-2,5-dihydrofuran]	0.7
CS(=O)(=O)c1ccc(C2=C(c3ccccc3)C(O)CC2)cc1 (centres unmarked) [Example 13, 3-(4-(Methylsulfonyl)phenyl)-2-phenyl-2-cyclopenten-1-ol]	0.9
CC(C)OC1=C(c2ccc(S(C)(=O)=O)cc2)C(C)(C)OC1O (centres unmarked) [Example 39, 3-Isopropoxy-5,5-dimethyl-4-(4-methylsulfonylphenyl)-2,5-dihydrofuran-2-ol]	2.7
CS(=O)(=O)c1ccc(C2=C(c3cccnc3)C(O)CC2)cc1 (centres unmarked) [Example 40, 3-(4-Methylsulfonylphenyl)-2-(3-pyridinyl)-2-cyclopenten-1-ol]	1.5

— EP0904269B1, “3,4-DIARYL-2-HYDROXY-2,5-DIHYDROFURANS AS PRODRUGS TO COX-2 INHIBITORS” (Merck Frosst Canada & Co., priority 1995, dated 1997)
